One compound from patent US20220304970A1, “LIPOSOMIAL EYE DROPS SOLUTION AND USES THEREOF FOR THE TREATMENT OF DRY EYE SYNDROME” (Dr. Rolf Lambert Pharma-Consulting GmbH, priority 2018, published 2022) can be followed below.

The data set in a line: Stability to steam sterilization. The conditions noted are these: 121° C. at 1·10^5 Pa (1 atm) for 15 minutes.

Turning to `CCCCCCCCCCCCCCCC(=O)OC/C=C(C)/C=C/C=C(C)/C=C/C1=C(C)CCCC1(C)C` [Vitamin A Palmitate, Retinyl Palmitate], the stability to sterilization result was “not stable”.
